Consider 27 compounds from US10800785B2, “Substituted pyrrolo[2,3-d]pyridazin-4-ones and pyrazolo[3,4-d]pyridazin-4-ones as protein kinase inhibitors” (Shanghai Fochon Pharmaceutical Co., Ltd., priority 2016, dated 2020).

The assay has as its system DOHH2 cells. Kind of assay: Cell proliferation assay (MTS) in DOHH2 cells, mechanism-based assay for BTK inhibition. As to conditions: Homo sapiens, DOHH-2, 120 h incubation, 5000 cells/well. From the text: Cell Proliferation Assays
MTS testing kit was purchased from Promega. The DMEM, Fetal bovine serum and Penicillin-Streptomycin were purchased from Gibco. Dimethyl sulfoxide (DMSO) was purchased from Sigma.
To investigate whether a compound is able to inhibit the activity of BTK in cells, a mechanism-based assay using DOHH2 (DSMZ catalog#: ACC47) and Mino (ATCC® Number CRL-3000™) cells was developed. In this assay, inhibition of BTK was detected by the inhibition of DOHH2 and Mino cell proliferations. DOHH2 or Mino cells were cultured in culture flasks to 40-80% confluence in RPMI-1640 plus 10% fetal bovine serum. C ells were collected and plated onto 96-well plates at desired cell density (DOHH2: 5000 cells/well; Mino: 10000 cells/well). Plates were incubated overnight at 37° C., with 5% CO2 to adhere. Compounds were added to the plates, and the final compound concentrations were 10000, 3333, 1111, […], 41, 14, 4.6 and 1.5 nM. Plates were placed at 37° C., with 5% CO2 for 120 h (DOHH2) or 72 h (Mino). 20 μl MTS/100 μl medium mixture solution were added to each well and the plates were incubated for exactly 2 hours. The reaction was stopped by adding 25 μl 10% SDS per well.
Select compounds prepared as described above were assayed according to the biological procedures described herein.
One may read the IC50 as the concentration needed to halve the response being measured. Take `CC#CC(=O)N1CCC[C@@H](c2nn(-c3ccc(Oc4c(F)cccc4F)cc3)c3c(N)n[nH]c(=O)c23)C1` [Example 85, (R)-7-amino-3-(1-(but-2-ynoyl)piperidin-3-yl)-1-(4-(2,6-difluorophenoxy)phenyl)-1,5-dihydro-4H-pyrazolo[3,4-d]pyridazin-4-one]: inhibition was half-maximal at 435 nM (IC50).

Consider `C=CC(=O)N1CCC[C@@H](c2cn(-c3ccc(Oc4ccccc4F)cc3)c3c(N)n[nH]c(=O)c23)C1` [Example 29, (S)-3-(1-acryloylpiperidin-3-yl)-7-amino-1-(4-(2-fluorophenoxy)phenyl)-1,5-dihydro-4H-pyrrolo [2,3-d]pyridazin-4-one], for which half-maximal inhibition (IC50) was put at 46 nM.

On to `CC#CC(=O)N1CC[C@@H](c2cn(-c3ccc(Oc4ccccc4F)cc3)c3c(N)n[nH]c(=O)c23)C1` [Example 75, (S)-7-amino-3-(1-(but-2-ynoyl)pyrrolidin-3-yl)-1-(4-(2-fluorophenoxy)phenyl)-1,5-dihydro-4H-pyrrolo[2,3-d]pyridazin-4-one], for which the IC50 stood at 383 nM.

The compound `C=CC(=O)N1CCC[C@@H](c2nn(-c3ccc(Oc4cc(F)cc(F)c4)cc3)c3c(N)n[nH]c(=O)c23)C1` [Example 58, (R)-3-(1-acryloylpiperidin-3-yl)-7-amino-1-(4-(3,5-difluorophenoxy)phenyl)-1,5-dihydro-4H-pyrazolo[3,4-d]pyridazin-4-one] yielded an IC50 of 224 nM.

As for `C=CC(=O)N1CCC[C@H](c2cn(-c3ccc(Oc4cccc(F)c4F)cc3)c3c(N)n[nH]c(=O)c23)C1` [Example 38, (R)-3-(1-acryloylpiperidin-3-yl)-7-amino-1-(4-(2,3-difluorophenoxy)phenyl)-1,5-dihydro-4H-pyrrolo[2,3-d]pyridazin-4-one], half-maximal inhibition (IC50) was put at 175 nM.

Take `CN(C)C/C=C/C(=O)N1CC[C@@H](c2cn(-c3ccc(Oc4ccccc4F)cc3)c3c(N)n[nH]c(=O)c23)C1` [Example 94, (S,E)-7-amino-3-(1-(4-(dimethylamino)but-2-enoyl)pyrrolidin-3-yl)-1-(4-(2-fluorophenoxy)phenyl)-1,5-dihydro-4H-pyrrolo[2,3-d]pyridazin-4-one]: the IC50 is 247 nM.

The compound `C=CC(=O)N1CCC[C@H](c2nn(-c3ccc(Oc4ccccc4F)cc3)c3c(N)n[nH]c(=O)c23)C1` [Example 59, (S)-3-(1-acryloylpiperidin-3-yl)-7-amino-1-(4-(2-fluorophenoxy)phenyl)-1,5-dihydro-4H-pyrazolo [3,4-d]pyridazin-4-one] gave an IC50 of 248 nM.

The compound `C=CC(=O)N1CCC[C@@H](c2cn(-c3ccc(Oc4cc(F)cc(F)c4)cc3)c3c(N)n[nH]c(=O)c23)C1` [Example 34, (S)-3-(1-acryloylpiperidin-3-yl)-7-amino-1-(4-(3,5-difluorophenoxy)phenyl)-1,5-dihydro-4H-pyrrolo[2,3-d]pyridazin-4-one] showed an IC50 of 42 nM.

Consider `C=CC(=O)N1CCC[C@H](c2nn(-c3ccc(Oc4c(F)cccc4F)cc3)c3c(N)n[nH]c(=O)c23)C1` [Example 63, (S)-3-(1-acryloylpiperidin-3-yl)-7-amino-1-(4-(2,6-difluorophenoxy)phenyl)-1,5-dihydro-4H-pyrazolo[3,4-d]pyridazin-4-one], for which half-maximal inhibition (IC50) was put at 189 nM.

`CC#CC(=O)N1CC[C@H](c2nn(-c3ccc(Oc4c(F)cccc4F)cc3)c3c(N)n[nH]c(=O)c23)C1` [Example 82, (S)-7-amino-3-(1-(but-2-ynoyl)pyrrolidin-3-yl)-1-(4-(2,6-difluorophenoxy)phenyl)-1,5-dihydro-4H-pyrazolo[3,4-d]pyridazin-4-one] displayed an IC50 of 687 nM.

In the case of `CN(C)C/C=C/C(=O)N1CCC[C@@H](c2cn(-c3ccc(Oc4ccccc4)cc3)c3c(N)n[nH]c(=O)c23)C1` [Example 103, (S,E)-7-amino-3-(1-(4-(dimethylamino)but-2-enoyl)piperidin-3-yl)-1-(4-phenoxyphenyl)-1,5-dihydro-4H-pyrrolo[2,3-d]pyridazin-4-one], 97 nM corresponded to half-maximal inhibition (IC50).

On to `C=CC(=O)N1CC[C@H](c2cn(-c3ccc(Oc4cccc(F)c4F)cc3)c3c(N)n[nH]c(=O)c23)C1` [Example 26, (R)-3-(1-acryloylpyrrolidin-3-yl)-7-amino-1-(4-(2,3-difluorophenoxy)phenyl)-1,5-dihydro-4H-pyrrolo[2,3-d]pyridazin-4-one], for which the IC50 stood at 260 nM.

Compound `CC#CC(=O)N1CC[C@H](c2nn(-c3ccc(Oc4ccccc4F)cc3)c3c(N)n[nH]c(=O)c23)C1` [Example 74, (S)-7-amino-3-(1-(but-2-ynoyl)pyrrolidin-3-yl)-1-(4-(2-fluorophenoxy)phenyl)-1,5-dihydro-4H-pyrazolo[3,4-d]pyridazin-4-one] gave an IC50 of 393 nM.

`C=CC(=O)N1CCC(c2cn(-c3ccc(Oc4ccccc4)cc3)c3c(N)n[nH]c(=O)c23)CC1` [Example 112, 3-(1-acryloylpiperidin-4-yl)-7-amino-1-(4-phenoxyphenyl)-1,5-dihydro-4H-pyrrolo[2,3-d]pyridazin-4-one] had an IC50 of 78 nM.

`CC#CC(=O)N1CC[C@@H](c2cn(-c3ccc(Oc4c(F)cccc4F)cc3)c3c(N)n[nH]c(=O)c23)C1` [Example 83, (S)-7-amino-3-(1-(but-2-ynoyl)pyrrolidin-3-yl)-1-(4-(2,6-difluorophenoxy)phenyl)-1,5-dihydro-4H-pyrrolo[2,3-d]pyridazin-4-one] registered a concentration for half-maximal inhibition (IC50) of 456 nM.

Turning to `CC#CC(=O)N1CC[C@@H](c2cn(-c3ccc(Oc4ccccc4)cc3)c3c(N)n[nH]c(=O)c23)C1` [Example 67, (S)-7-amino-3-(1-(but-2-ynoyl)pyrrolidin-3-yl)-1-(4-phenoxyphenyl)-1,5-dihydro-4H-pyrrolo [2,3-d]pyridazin-4-one], the half-maximal inhibitory concentration (IC50) turned out to be 205 nM.

Compound `C=CC(=O)N1CCC(c2cn(-c3ccc(Oc4c(F)cccc4F)cc3)c3c(N)n[nH]c(=O)c23)C1` (stereo not drawn) [Example 3, 3-(1-acryloylpyrrolidin-3-yl)-7-amino-1-(4-(2,6-difluorophenoxy)phenyl)-1,5-dihydro-4H-pyrrolo[2,3-d]pyridazin-4-one] registered an IC50 of 147 nM.

In the case of `CC#CC(=O)N1CCC[C@H](c2cn(-c3ccc(Oc4ccccc4F)cc3)c3c(N)n[nH]c(=O)c23)C1` [Example 80, (R)-7-amino-3-(1-(but-2-ynoyl)piperidin-3-yl)-1-(4-(2-fluorophenoxy)phenyl)-1,5-dihydro-4H-pyrrolo[2,3-d]pyridazin-4-one], inhibition was half-maximal at 450 nM (IC50).

With `CN(C)C/C=C/C(=O)N1CCC[C@@H](c2cn(-c3ccc(Oc4ccccc4F)cc3)c3c(N)n[nH]c(=O)c23)C1` [Example 104, (S,E)-7-amino-3-(1-(4-(dimethylamino)but-2-enoyl)piperidin-3-yl)-1-(4-(2-fluorophenoxy)phenyl)-1,5-dihydro-4H-pyrrolo[2,3-d]pyridazin-4-one], the IC50 was 151 nM.

For `C=CC(=O)N1CC[C@@H](c2nn(-c3ccc(Oc4ccccc4)cc3)c3c(N)n[nH]c(=O)c23)C1` [Example 13, (R)-3-(1-acryloylpyrrolidin-3-yl)-7-amino-1-(4-phenoxyphenyl)-1,5-dihydro-4H-pyrazolo[3,4-d]pyridazin-4-one], half-maximal inhibition (IC50) was put at 107 nM.

`C=CC(=O)N1CC[C@H](c2cn(-c3ccc(Oc4c(F)cccc4F)cc3)c3c(N)n[nH]c(=O)c23)C1` [Example 27, (R)-3-(1-acryloylpyrrolidin-3-yl)-7-amino-1-(4-(2,6-difluorophenoxy)phenyl)-1,5-dihydro-4H-pyrrolo[2,3-d]pyridazin-4-one] displayed an IC50 of 47 nM.

As to `C=CC(=O)N1CC[C@@H](c2cn(-c3ccc(Oc4c(F)cccc4F)cc3)c3c(N)n[nH]c(=O)c23)C1` [Example 21], the concentration for half-maximal inhibition (IC50) was determined as 100 nM.

In turn, `C=CC(=O)N1CCC[C@H](c2cn(-c3ccc(Oc4ccccc4)cc3)c3c(N)n[nH]c(=O)c23)C1` [Example 12, (R)-3-(1-acryloylpiperidin-3-yl)-7-amino-1-(4-phenoxyphenyl)-1,5-dihydro-4H-pyrrolo[2,3-d]pyridazin-4-one] had an IC50 of 74 nM.

For the compound `C=CC(=O)N1CC[C@@H](c2cn(-c3ccc(Oc4cccc(F)c4)cc3)c3c(N)n[nH]c(=O)c23)C1` [Example 18, (S)-3-(1-acryloylpyrrolidin-3-yl)-7-amino-1-(4-(3-fluorophenoxy)phenyl)-1,5-dihydro-4H-pyrrolo[2,3-d]pyridazin-4-one], the IC50 is 181 nM.

As to `C=CC(=O)N1CCC[C@H](c2cn(-c3ccc(Oc4c(F)cccc4F)cc3)c3c(N)n[nH]c(=O)c23)C1` [Example 39, (R)-3-(1-acryloylpiperidin-3-yl)-7-amino-1-(4-(2,6-difluorophenoxy)phenyl)-1,5-dihydro-4H-pyrrolo[2,3-d]pyridazin-4-one], the IC50 is 31 nM.

`C=CC(=O)N1CCC[C@@H](c2cn(-c3ccc(Oc4ccc(F)cc4)cc3)c3c(N)n[nH]c(=O)c23)C1` [Example 31, (S)-3-(1-acryloylpiperidin-3-yl)-7-amino-1-(4-(4-fluorophenoxy)phenyl)-1,5-dihydro-4H-pyrrolo [2,3-d]pyridazin-4-one] showed an IC50 of 167 nM.

As to `CC#CC(=O)N1CCC[C@H](c2cn(-c3ccc(Oc4c(F)cccc4F)cc3)c3c(N)n[nH]c(=O)c23)C1` [Example 88, (R)-7-amino-3-(1-(but-2-ynoyl)piperidin-3-yl)-1-(4-(2,6-difluorophenoxy)phenyl)-1,5-dihydro-4H-pyrrolo[2,3-d]pyridazin-4-one], the IC50 stood at 432 nM.
